# Results taken from PMC9983021, “Novel GluN2B-Selective NMDA Receptor Negative Allosteric Modulator Possesses Intrinsic Analgesic Properties and Enhances Analgesia of Morphine in a Rodent Tail Flick Pain Model” (ACS Chemical Neuroscience, 2023).
# Tests used:
# Test in all cases: Radioligand binding assay (NIMH PDSP)
# 5-HT2B = 5-HT2B (Homo sapiens, UniProt P41595)
# Method: (§1) Compound EU93-108 was also tested for inhibition of binding of probes to a range of GPCRs and other targets (Table 4 and Supporting Table S4). […] EU93-108 produced significant displacement of binding probes for the 5-HT2 receptors and α-1-adrenergic receptors, as well as D3, H1, and σ1 receptors. Concentration–response binding competition curves for these targets were used to determine Ki values (Table 4). Given that the brain concentration of EU93-108 achieved 30 min post i.p. injection is 18 μM (Figure 6), the doses that yield our desired antinociceptive effects may engage some of the receptors listed in Table 4.
# (§2) Conventional competition and saturation radioligand binding assays were used to determine the affinities of reference standards and EU93-108. Experiments were carried out by the NIMH Psychoactive Drug Screening Program (PDSP) and were performed as previously described.[123]
# (§3) The detailed experimental protocols for the radioligand assays are available on the NIMH PDSP website at https://pdsp.unc.edu/pdspweb/content/UNC-CH%20Protocol%20Book.pdf.
# (§4) Receptor Mean % Receptor Mean % Receptor Mean %
# (§5) Inhibition Inhibition Inhibition
# (§6) Supplemental Table S4. Off-Target Actions of EU93-108: Primary GPCR Screen. Cloned human molecular targets were individually expressed and submitted to molecular target-based screening with initial screens performed at a final concentration of 10 µM in quadruplicate. Complete protocols for the assays have been previously published (Besnard J et al. 2012). Where inhibition greater than 50% was measured, secondary screens were performed wherein Ki values were calculated (see Table 4).
# 5-HT2C = molecular target: T1, 5-HT2C (Homo sapiens, UniProt P28335)
# T1 sequence (P28335 33-458): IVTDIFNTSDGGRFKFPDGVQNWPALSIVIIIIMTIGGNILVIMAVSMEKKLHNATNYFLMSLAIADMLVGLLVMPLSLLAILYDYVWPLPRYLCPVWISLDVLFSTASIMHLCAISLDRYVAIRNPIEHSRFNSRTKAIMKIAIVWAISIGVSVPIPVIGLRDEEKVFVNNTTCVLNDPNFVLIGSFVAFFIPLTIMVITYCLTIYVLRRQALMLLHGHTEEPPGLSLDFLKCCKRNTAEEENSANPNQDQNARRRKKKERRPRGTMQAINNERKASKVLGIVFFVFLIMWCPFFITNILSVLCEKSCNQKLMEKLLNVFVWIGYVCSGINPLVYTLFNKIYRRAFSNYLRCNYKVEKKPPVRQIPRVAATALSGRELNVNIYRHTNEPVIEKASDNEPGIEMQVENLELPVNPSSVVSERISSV
# Method: as §1, §2, §3, §4, §5, §6
# Alpha1D (α1D) = molecular target: T2, Alpha1D (α1D) (Homo sapiens, UniProt P25100)
# T2 sequence (P25100 1-572): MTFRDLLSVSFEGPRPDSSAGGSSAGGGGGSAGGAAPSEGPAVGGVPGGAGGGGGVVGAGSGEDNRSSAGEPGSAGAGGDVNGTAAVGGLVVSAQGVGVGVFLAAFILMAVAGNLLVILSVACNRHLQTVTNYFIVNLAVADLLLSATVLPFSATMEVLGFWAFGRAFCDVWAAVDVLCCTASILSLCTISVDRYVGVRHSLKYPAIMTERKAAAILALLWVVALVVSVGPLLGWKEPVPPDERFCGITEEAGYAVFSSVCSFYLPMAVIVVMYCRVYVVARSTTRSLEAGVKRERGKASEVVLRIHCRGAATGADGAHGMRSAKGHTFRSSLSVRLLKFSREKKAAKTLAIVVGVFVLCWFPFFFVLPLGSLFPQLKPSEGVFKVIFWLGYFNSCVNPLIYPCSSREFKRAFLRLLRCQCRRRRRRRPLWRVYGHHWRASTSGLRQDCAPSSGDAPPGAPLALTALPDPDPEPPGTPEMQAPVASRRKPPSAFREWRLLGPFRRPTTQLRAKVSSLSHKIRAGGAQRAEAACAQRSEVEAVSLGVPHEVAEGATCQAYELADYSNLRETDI
# Method: as §1, §2, §3, §4, §5, §6
# Alpha2A (α2A) = molecular target: T3, Alpha2A (α2A) (Homo sapiens, UniProt P08913)
# T3 sequence (P08913 1-465): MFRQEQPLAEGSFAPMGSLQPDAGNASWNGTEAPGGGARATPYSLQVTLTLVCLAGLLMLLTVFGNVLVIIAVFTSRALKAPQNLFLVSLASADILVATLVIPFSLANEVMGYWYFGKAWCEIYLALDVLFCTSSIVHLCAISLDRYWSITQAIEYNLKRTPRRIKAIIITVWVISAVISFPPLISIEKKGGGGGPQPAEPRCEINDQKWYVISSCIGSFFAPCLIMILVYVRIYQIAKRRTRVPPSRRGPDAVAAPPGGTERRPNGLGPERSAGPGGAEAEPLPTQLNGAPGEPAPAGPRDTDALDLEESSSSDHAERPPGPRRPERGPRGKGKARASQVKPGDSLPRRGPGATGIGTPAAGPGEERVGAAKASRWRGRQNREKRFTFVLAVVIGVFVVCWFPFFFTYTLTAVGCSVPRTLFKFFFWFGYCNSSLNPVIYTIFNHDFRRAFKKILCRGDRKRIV
# Method: as §1, §2, §3, §4, §5, §6
# Alpha2B (α2B) = molecular target: T4, Alpha2B (α2B) (Homo sapiens, UniProt P18089)
# T4 sequence (P18089 1-450): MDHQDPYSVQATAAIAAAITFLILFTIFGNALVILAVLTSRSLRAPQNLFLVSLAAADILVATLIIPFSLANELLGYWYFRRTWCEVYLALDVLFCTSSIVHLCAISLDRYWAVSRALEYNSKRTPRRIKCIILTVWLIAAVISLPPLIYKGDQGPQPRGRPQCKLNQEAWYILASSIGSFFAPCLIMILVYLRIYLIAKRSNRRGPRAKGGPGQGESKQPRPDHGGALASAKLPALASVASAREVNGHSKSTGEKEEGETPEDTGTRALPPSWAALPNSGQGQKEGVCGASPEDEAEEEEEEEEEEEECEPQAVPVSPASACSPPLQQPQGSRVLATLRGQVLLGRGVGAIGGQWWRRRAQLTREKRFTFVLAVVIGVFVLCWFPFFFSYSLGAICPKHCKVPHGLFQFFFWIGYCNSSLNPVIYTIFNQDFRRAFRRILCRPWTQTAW
# Method: as §1, §2, §3, §4, §5, §6
# [1] = primary screen, 10 µM, quadruplicate
# [2] = ratio of Ki to the IC50 for EU93-108 (555 nM) at GluN2B
# [3] = secondary screen, binding competition curve
# 5-HT2B, sequence (P41595 whole entry): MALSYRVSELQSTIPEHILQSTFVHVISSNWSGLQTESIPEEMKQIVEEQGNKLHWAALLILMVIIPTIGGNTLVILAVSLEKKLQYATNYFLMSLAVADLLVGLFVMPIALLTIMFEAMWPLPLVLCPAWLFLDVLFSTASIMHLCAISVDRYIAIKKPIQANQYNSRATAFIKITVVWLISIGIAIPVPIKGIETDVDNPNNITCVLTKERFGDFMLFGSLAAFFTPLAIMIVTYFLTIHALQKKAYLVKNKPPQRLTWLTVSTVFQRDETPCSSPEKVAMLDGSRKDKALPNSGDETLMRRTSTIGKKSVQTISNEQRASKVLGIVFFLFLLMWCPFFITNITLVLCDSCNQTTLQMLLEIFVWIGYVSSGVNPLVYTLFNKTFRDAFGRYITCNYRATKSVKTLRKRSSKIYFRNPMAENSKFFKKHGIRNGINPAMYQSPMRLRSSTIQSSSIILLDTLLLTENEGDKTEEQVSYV
structure (smiles),measurement,setting,value
"CS(=O)(=O)Nc1ccc(OC[C@@H](O)CN2CCN(c3ccc(F)c(F)c3)CC2)cc1 [EU93-108, (S)-N-(4-(3-(4-(3,4-Difluorophenyl)piperazin-1-yl)-2-hydroxypropoxy)phenyl)methanesulfonamide]",inhibition at 10 µM,5-HT2B; [1],67.4%
same,Ki/IC50 of EU93-108,5-HT2B; [2],1.75
same,Ki,5-HT2B; [3],976 nM
same,inhibition at 10 µM,5-HT2C; [1],71.3%
same,Ki/IC50 of EU93-108,5-HT2C; [2],3.28
same,Ki,5-HT2C; [3],1820 nM
same,inhibition at 10 µM,Alpha1D (α1D); [1],76.7%
same,Ki/IC50 of EU93-108,Alpha1D (α1D); [2],0.65
same,Ki,Alpha1D (α1D); [3],359 nM
same,inhibition at 10 µM,Alpha2A (α2A); [1],77.7%
same,Ki/IC50 of EU93-108,Alpha2A (α2A); [2],2.07
same,Ki,Alpha2A (α2A); [3],1150 nM
same,inhibition at 10 µM,Alpha2B (α2B); [1],68%
same,Ki/IC50 of EU93-108,Alpha2B (α2B); [2],1.31
same,Ki,Alpha2B (α2B); [3],728 nM
